This note sets out measurements from ChEMBL document CHEMBL1201862, “PubChem BioAssay data set” (2004).

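Five compound concentrations were applied to cells in 96-well plates for 48 hours; endpoints were derived by simple linear interpolation of the resulting dose-response curve. GI50 = concentration required for 50% inhibition of growth.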 Active and inactive are the calls of the source. No stated cut-off is given here; in the data, active = GI50 up to about 1.1 µM and inactive = higher.

Holding throughout (assay): NCI tumour cell line growth inhibition, 48 h
The test system of test [1] is ACHN.
The subject of test [2] is HL-60.
Test [3] relates to OVCAR-3.
The subject of test [4] is T47D.
Test [5] deals with MCF7.
Test [6] has as its system SW-620.
Test [7] deals with SNB-19.
Test [8] concerns MDA-MB-435.
Test [9] has as its system HCT-116.
The subject of test [10] is SNB-75.
Test [11] has as its system 786-0.
Test [12] concerns MDA-N.
Test [13] concerns KM12.
Test [14] deals with DU-145.
Test [15] deals with UACC-257.
In test [16] the test system is SK-MEL-5.
Test [17] has as its system SK-MEL-28.
Test [18] deals with Malme-3M.
For test [19], the system named is CCRF-CEM.
Test [20] concerns UO-31.

As to `COC(=O)c1ccccc1C1CN=NC12Cc1ccc(C)cc1C2=O` (stereo not drawn), the GI50 is > 100 µM (inactive) in [1]; 33.3 µM (inactive) in test [2]; 38.6 µM (inactive) in test [3]; 29.4 µM (inactive) in test [4]; 72.8 µM (inactive) in test [5]; 45.2 µM (inactive) in test [6]. Moreover, the GI50 in test [7] was 70.3 µM (inactive); in test [8], 33.3 µM (inactive); in test [9] it was 38.6 µM (inactive); in [10] it was 90.6 µM (inactive); in test [11] it was > 100 µM (inactive); in [12], 27.7 µM (inactive). Moreover, the GI50 in test [13] was 37.9 µM (inactive); in [14], > 100 µM (inactive); in test [15], 93.1 µM (inactive); in [16] it was 38.1 µM (inactive); in test [17], 67.8 µM (inactive); in test [18], 86.5 µM (inactive). Besides, the GI50 is > 100 µM (inactive) in [19] and 34.7 µM (inactive) in [20].

In the case of `CC(Oc1ccccc1Cl)C(=O)NN1C(=O)CSC1c1ccccc1` (stereo not drawn), the GI50 in [1] was > 100 µM (inactive); in test [2], 28.2 µM (inactive); in [3], > 100 µM (inactive); in test [4], 63.4 µM (inactive); in [5], 92.3 µM (inactive); in [6], > 100 µM (inactive). The GI50 in test [7] is > 100 µM (inactive); in test [8] it was 75.3 µM (inactive); in test [9] it was 34.9 µM (inactive); in test [10], > 100 µM (inactive); in test [11], 74.5 µM (inactive); in [12] it was 57.8 µM (inactive). For the same molecule, the GI50 in test [13], in test [14], in test [15], in test [16], in [17] and in test [19] was > 100 µM (inactive) throughout. Moreover, the GI50 in [20] was > 100 µM (inactive).

In the case of `COc1ccc(C)cc1N1C(=O)C2ON(Cc3ccc(CC(N)=O)cc3)C(c3c4ccccc4c(Cl)c4ccccc34)C2C1=O` (stereo not drawn), the GI50 is 25.4 µM (inactive) in [1]; 27.6 µM (inactive) in test [2]; 28.4 µM (inactive) in test [3]; 27.4 µM (inactive) in [4]; 26.4 µM (inactive) in test [5]; 28.4 µM (inactive) in [6]. Further, the GI50 was 32.1 µM (inactive) in [7]; 21.9 µM (inactive) in [8]; 15.1 µM (inactive) in test [9]; 12.4 µM (inactive) in test [10]; 21.4 µM (inactive) in test [11]; 14.6 µM (inactive) in test [12]. Also, the GI50 in [13] was 14 µM (inactive); in test [14] it was 22.6 µM (inactive); in [15], 15 µM (inactive); in test [17] it was 44.1 µM (inactive); in [18], 31.1 µM (inactive); in test [19], 21.5 µM (inactive). The GI50 in test [20] is 25.7 µM (inactive).

`O=[N+]([O-])c1ccc(/N=N/N2CCCC2)cc1`: the GI50 in [1] was > 100 µM (inactive); in test [2], 32.2 µM (inactive); in [3], > 100 µM (inactive); in test [4], > 100 µM (inactive); in test [5] it was > 100 µM (inactive); in test [6], > 100 µM (inactive). For the same molecule, the GI50 in [7], in test [8], in [9], in [10], in test [11] and in test [12] was > 100 µM (inactive) throughout. Moreover, the GI50 in [13], in test [14], in test [15], in test [16], in test [19] and in [20] was > 100 µM (inactive) in each case.

As to `c1ncn(C23C4C5C6C4C2C6C53)n1` (stereo not drawn), the GI50 in test [1], in test [2], in test [4], in [5], in [6] and in test [7] was > 100 µM (inactive) throughout. Moreover, the GI50 in test [8], in test [9], in test [10], in test [11], in [12] and in [13] was > 100 µM (inactive) in each case. The GI50 in test [14], in [15], in [16], in test [17] and in test [19] was > 100 µM (inactive) in each case.

Consider `CCOC(=O)Nn1c(CC#N)nnc1Cc1ccccc1`, for which the GI50 was > 100 µM (inactive) in test [1]; > 100 µM (inactive) in test [2]; > 100 µM (inactive) in test [3]; 84.9 µM (inactive) in test [4]; > 100 µM (inactive) in test [5]; > 100 µM (inactive) in test [6]. For the same molecule, the GI50 in test [7], in test [8], in [9], in test [10], in [11] and in [12] was > 100 µM (inactive) each time. Further, the GI50 in [13], in test [14], in [15], in test [16], in test [17] and in test [18] was > 100 µM (inactive) throughout. Also, the GI50 in test [20] is > 100 µM (inactive).

Turning to `COc1c(Br)cc2ccccc2c1-c1c(OC)c(Br)cc2ccccc12`, the GI50 in test [1] was > 100 µM (inactive); in test [2], 25.6 µM (inactive); in [3], > 100 µM (inactive); in test [4], 7.01 µM (inactive); in test [5] it was 49.9 µM (inactive); in test [6], > 100 µM (inactive). Further, the GI50 in test [7] is > 100 µM (inactive); in [8], > 100 µM (inactive); in [10], > 100 µM (inactive); in test [11] it was > 100 µM (inactive); in test [12] it was > 100 µM (inactive); in test [13], 79.1 µM (inactive). Further, the GI50 in test [14] is > 100 µM (inactive); in test [15], > 100 µM (inactive); in [16], 67.5 µM (inactive); in test [17] it was > 100 µM (inactive); in test [19], > 100 µM (inactive); in [20], > 100 µM (inactive).

Consider `CC(=O)NC1C(OCc2ccccc2)OC(CO)C(O)C1OC(C)C(=O)NC(C(=O)N[C@@H](CCC(=O)NCCNCCNc1c2ccccc2nc2cccc([N+](=O)[O-])c12)C(N)=O)C(C)C` (stereo partly drawn), for which the GI50 in test [1] is 16.4 µM (inactive); in test [2] it was 10.1 µM (inactive); in [3] it was 25.8 µM (inactive); in test [4], 68.2 µM (inactive); in test [5], 6.7 µM (inactive); in test [6], 13.2 µM (inactive). Moreover, the GI50 was 64.1 µM (inactive) in [7]; 14.1 µM (inactive) in [8]; 19.9 µM (inactive) in test [9]; 77.4 µM (inactive) in [10]; 22.4 µM (inactive) in test [11]; 20.1 µM (inactive) in [12]. Further, the GI50 in [13] is 26.5 µM (inactive); in [14], 33 µM (inactive); in [17] it was 41.4 µM (inactive); in [18], 36.2 µM (inactive); in test [19], 17.8 µM (inactive); in test [20], 21.7 µM (inactive).

As for `CCN(CC)CC[n+]1ccc2c(C)c3[nH]c4ccccc4c3c(C)c2c1`, the GI50 is 5 µM (inactive) in [1]; 0.168 µM (active) in test [2]; 0.236 µM (active) in test [3]; 0.188 µM (active) in test [4]; 0.522 µM (active) in test [5]; 0.51 µM (active) in [6]. Also, the GI50 in test [7] was 0.144 µM (active); in test [8], 0.635 µM (active); in test [10], 0.276 µM (active); in test [11], 0.56 µM (active); in test [12], 0.675 µM (active); in [13], 0.338 µM (active). Further, the GI50 in test [14] is 0.422 µM (active); in [15] it was 0.713 µM (active); in [16] it was 0.401 µM (active); in [17], 0.533 µM (active); in test [18], 0.662 µM (active); in test [19] it was 0.204 µM (active).

With `O=C(Nc1ccccc1)c1cc(S(=O)(=O)NC2=Nc3ccc(Cl)cc3C(c3ccccc3)N2)c(SSc2cc(Cl)c(C(=O)Nc3ccccc3)cc2S(=O)(=O)NC2=Nc3ccc(Cl)cc3C(c3ccccc3)N2)cc1Cl` (stereo not drawn), the GI50 was > 100 µM (inactive) in test [1]; > 36.1 µM (inactive) in [2]; > 100 µM (inactive) in test [3]; > 100 µM (inactive) in [4]; > 100 µM (inactive) in test [5]; > 100 µM (inactive) in test [6]. Moreover, the GI50 in test [7], in [8], in test [9], in [10], in [11] and in test [12] was > 100 µM (inactive) throughout. For the same molecule, the GI50 in [13], in test [14], in test [15], in test [16], in [17] and in test [18] was > 100 µM (inactive) in each case. The GI50 in test [20] is > 100 µM (inactive).

Take `CN1Cc2ccccc2S(=O)(=O)n2cccc2C1=O`: the GI50 in test [1] was > 100 µM (inactive); in test [2], > 100 µM (inactive); in test [3], > 100 µM (inactive); in [4], 32.8 µM (inactive); in [5], > 100 µM (inactive); in [6], > 100 µM (inactive). Further, the GI50 in test [8], in test [9], in [10], in test [11], in test [12] and in [13] was > 100 µM (inactive) each time. Also, the GI50 in test [14], in [15], in test [16], in [17], in [19] and in test [20] was > 100 µM (inactive) each time.
